Test results as given in patent US20080039442A1, “Compounds With Kv4 Ion Channel Activity” (Devgen NV, priority 2004, published 2008).
Read-outs that look alike come from different tables or passages of the source.

How the values were obtained:
[1] = biological target: T1, human Kv4.3/KChIP2.2 potassium channel (Homo sapiens, UniProt Q9UK17); test: Whole cell patch clamp, CHO-K1 cells stably expressing Kv4.3/KChIP2.2; type: cell-based; details: for remaining activity at 1 µM: CHO-K1
T1 construct: expressed in transfected cells
T1 sequence (Q9UK17 1-655): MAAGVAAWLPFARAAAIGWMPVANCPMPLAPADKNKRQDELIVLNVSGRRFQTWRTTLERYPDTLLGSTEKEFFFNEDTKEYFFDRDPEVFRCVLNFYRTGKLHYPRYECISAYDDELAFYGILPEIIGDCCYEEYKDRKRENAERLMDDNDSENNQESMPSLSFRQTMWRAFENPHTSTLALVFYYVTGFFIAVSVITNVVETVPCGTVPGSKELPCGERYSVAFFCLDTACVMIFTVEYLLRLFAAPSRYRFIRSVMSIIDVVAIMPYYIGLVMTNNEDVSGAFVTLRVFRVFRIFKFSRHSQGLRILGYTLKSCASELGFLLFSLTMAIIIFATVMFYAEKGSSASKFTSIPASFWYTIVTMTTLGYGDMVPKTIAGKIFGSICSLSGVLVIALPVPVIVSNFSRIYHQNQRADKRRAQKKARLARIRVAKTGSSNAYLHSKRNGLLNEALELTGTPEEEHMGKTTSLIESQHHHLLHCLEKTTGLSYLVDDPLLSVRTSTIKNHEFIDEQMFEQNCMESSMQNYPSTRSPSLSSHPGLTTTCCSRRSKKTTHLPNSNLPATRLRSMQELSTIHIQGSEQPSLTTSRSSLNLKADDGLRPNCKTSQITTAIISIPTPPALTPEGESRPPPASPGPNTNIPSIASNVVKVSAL
T1 sequence (Q9NS61 1-270 partner): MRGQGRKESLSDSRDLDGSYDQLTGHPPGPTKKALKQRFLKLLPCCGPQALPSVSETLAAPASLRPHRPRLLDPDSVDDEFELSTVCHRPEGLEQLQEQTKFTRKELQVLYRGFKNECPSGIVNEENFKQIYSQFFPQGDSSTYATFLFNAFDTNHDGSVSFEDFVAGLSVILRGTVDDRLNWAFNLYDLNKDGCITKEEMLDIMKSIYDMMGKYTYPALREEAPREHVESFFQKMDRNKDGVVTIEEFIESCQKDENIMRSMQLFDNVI
Method: For this experiment, a recombinant CHO-K1 cell line stably expressing the human Kv4.3/KChIP2.2 potassium channel was used.
Protocol B: The cells were cultured in 94 mm culture dishes under the culturing conditions of 5% CO2 and 37° C. Subculturing was performed every 3-4 days, by removing the media and then rising the dish with 8 ml PBS (phosphate buffered saline). The PBS was removed and 1 ml Trypsin/EDTA was added to the cells. The cells were incubated about 2 min at 37° C. or 5 min at room temperature and then the dish was rapped to detach and singularize the cells. To inactivate the enzyme 9 ml of media was added and the solution was pipetted up and down to break up clumps of cells. Part of the suspension was then transferred to a new 94 mm dish and media was added to a final volume of 8 ml. If necessary the cells could be seeded onto 35 mm or 94 mm dishes (2 ml media per 35 mm dish and 8 ml media per 94 mm dish). The media was changed every 2-3 days. The media used was the solution for culturing the cells described above. For stable cells antibiotic G418, Hygromycin, Blasticidin, or Zeocin were not added.
The preparation of cells for electrophysiological experiments was performed as described in protocol C hereunder.
Protocol C: The transfected cells and stable cells were transferred from 35 mm cell culture dishes onto coverslips using cold PBS: The media was removed and 0.3 ml of PBS (4-10° C.) was added. The cells were incubated 5 min at room temperature. The dish was rapped to detach and singularize the cells and 1.7 ml media was added and the solution pipetted up and down to break up clumps of cells. Part of the cell suspension was then transferred to a 35 mm dish with coverslips and media. The transfected cells and stable cells could also be transferred from 35 mm cell culture dishes onto coverslips using trypsin: The media was removed and the dish rinsed with 3 ml PBS. The PBS was removed and 0.3 ml 1× Trypsin/EDTA was added and the cells incubated 5 min at room temperature. The dish was rapped to detach and singularize the cells and 1.7 ml media was added and the solution pipetted up and down to break up clumps of cells. Part of the cell suspension was then transferred to a 35 mm dish with coverslips and media.
10 mM stock solutions of the compounds were prepared in DMSO. Solutions of the compounds were prepared by dilution of stock solution in bath solution. If the required stock solution volume was theoretically below 1 μl, bath solutions with higher compound concentration were used for dilution. The maximal DMSO concentration during experiments was 0.1% (v/v).
For patch clamp experiments, the following solutions in demineralized water as vehicle were used (concentration in mM).
Bath (external) solution: 4 KCl, 135 NaCl, 2 CaCl2, 1 MgCl2, 10 D(+)-Glucose, 5 HEPES, pH 7.4 (NaOH).
Pipette (internal) solution: 130 KCl, 1 MgCl2, 10 EGTA, 5 Na2ATP, 5 HEPES, pH 7.4 (KOH).
Experiments were performed using a patch clamp set-up.
Measurements were performed at room temperature (20-25° C.). […] Each cell acted as its own control. The effect of compounds on Kv4.3/KChIP2.2 mediated currents was investigated at one concentration ([…]) with two replicates each (c=1, n=2).
The test protocols are illustrated in FIG. 1 and Table 4. […] Each test protocol consisted of 4 segments.
Subsequently, 14 test pulses (series 1; FIG. 1b and Table 4b) were applied at 0.1 Hz under constant superfusion with bath solution. The protocol was initiated by a voltage jump to −100 mV (400 ms) to achieve full inactivation. Then the Kv4.3/KChIP2.2 channels were transferred to the open state by depolarization to +40 mV for 300 milliseconds (activation). Only cells generating current amplitudes between 1 nA and 50 nA were used for the experimental procedure. No or negligible rundown was observed.
Then, 36 test pulses (series 2) were applied at 0.1 Hz under constant superfusion with the compound dissolved in bath solution. […]

hERG potassium channel = hERG potassium channel (Homo sapiens, UniProt Q12809); test: Whole cell patch clamp, HEK 293 T-REx HERG cells
hERG potassium channel, sequence (Q12809 whole entry): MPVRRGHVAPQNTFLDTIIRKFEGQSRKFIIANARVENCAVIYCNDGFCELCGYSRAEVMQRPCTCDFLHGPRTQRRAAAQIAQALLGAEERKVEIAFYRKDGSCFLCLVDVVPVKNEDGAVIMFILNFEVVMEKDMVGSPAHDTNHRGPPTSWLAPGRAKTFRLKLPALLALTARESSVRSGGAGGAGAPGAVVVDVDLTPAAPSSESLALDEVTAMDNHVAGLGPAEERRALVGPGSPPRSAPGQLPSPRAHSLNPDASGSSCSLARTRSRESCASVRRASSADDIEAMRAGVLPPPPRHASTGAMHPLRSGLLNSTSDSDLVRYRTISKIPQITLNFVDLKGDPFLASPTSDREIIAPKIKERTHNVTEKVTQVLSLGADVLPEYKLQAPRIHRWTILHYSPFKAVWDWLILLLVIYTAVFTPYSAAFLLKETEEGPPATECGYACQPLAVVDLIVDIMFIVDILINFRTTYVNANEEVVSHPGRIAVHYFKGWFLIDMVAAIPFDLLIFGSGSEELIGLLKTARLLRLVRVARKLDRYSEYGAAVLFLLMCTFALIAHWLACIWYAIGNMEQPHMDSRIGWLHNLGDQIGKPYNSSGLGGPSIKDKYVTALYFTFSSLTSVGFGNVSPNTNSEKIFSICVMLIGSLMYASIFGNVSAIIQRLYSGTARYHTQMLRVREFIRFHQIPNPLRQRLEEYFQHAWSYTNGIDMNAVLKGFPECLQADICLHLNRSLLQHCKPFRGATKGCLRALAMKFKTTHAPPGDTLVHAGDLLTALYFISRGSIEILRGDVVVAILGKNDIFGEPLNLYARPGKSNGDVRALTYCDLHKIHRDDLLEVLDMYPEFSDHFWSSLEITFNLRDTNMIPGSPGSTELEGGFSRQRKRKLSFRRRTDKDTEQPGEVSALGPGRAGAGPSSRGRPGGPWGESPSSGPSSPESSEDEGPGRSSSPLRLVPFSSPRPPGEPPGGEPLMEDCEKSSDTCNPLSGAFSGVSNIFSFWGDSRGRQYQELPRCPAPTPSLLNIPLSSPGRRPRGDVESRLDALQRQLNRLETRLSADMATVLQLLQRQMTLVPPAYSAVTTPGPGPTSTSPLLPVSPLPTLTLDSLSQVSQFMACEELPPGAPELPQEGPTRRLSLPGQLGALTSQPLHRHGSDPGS
Description: For this experiment HEK 293 T-REx HERG cells (#23) were used. This cell line made by IonGate is characterized by the inducible expression of the hERG gene. The T-REx™ System (Invitrogen, Karlsruhe, Germany) is a tetracycline-regulated mammalian expression system that uses regulatory elements from the E. coli Tn10-encoded tetracycline (Tet) resistance operon. In the absence of Tet the expression is repressed. Tetracycline regulation in the T-REx™ System is based on the binding of tetracycline to the Tet repressor and derepression of the promoter controlling expression of the hERG gene. Addition of Tet to the cell culture media results in expression of the hERG potassium channel.
To construct the HEK 293 T-REx HERG cell line, the hERG gene was ligated into the inducible expression vector pcDNA4/TO (→pc4TO-HERG) and transfected into HEK 293 T-REx cells (this cell line stably expresses the Tet repressor and was purchased at Invitrogen). Stable cell clones were isolated after selection with Blasticidin (5 μg/ml) and Zeocin™ (300 μg/ml). The clones were electrophysiological characterized after induction with 1 μg/ml Tet.
Experiments were performed using the patch clamp set-up. Technical equipment needed for manipulation of the cells was placed on a vibration-isolated table and shielded with a Faraday cage to minimize electrical noise. The amplifier and control system were placed in a rack outside the Faraday cage. The system consisted of an EPC9 or EPC10 patch clamp amplifier (HEKA, Lambrecht, Germany), and the perfusion system DADVC8 (ALA Scientific, New York, USA) controlled by the Pulse software package (HEKA, Lambrecht, Germany) installed on a personal computer.
The cells used for this experiment were kept in continuous culture under standard conditions (37° C., air supplemented with 5% CO2). The HEK 293 T-REx HERG cells were kept in minimal essential medium (MEM) supplemented with 100 U/ml Penicillin, 100 μg/ml Streptomycin, 10% fetal calf serum (FCS), 1% non-essential amino acids (NEAA), 2.5 μg/ml amphotericin, 300 μg/ml Zeocin™ and 5 μg/ml Blasticidin. Cells were passed every 3-4 days after detachment using a Trypsin solution. The quality of the cultured cells was guaranteed by vitality and contamination tests.
At least 18 hours prior to electrophysiological experiments the cells were detached by application of iced PBS (phosphate buffered saline) or Trypsin and replated on cover slips. 1 μg/ml Tet was added to the cells to induce hERG expression.
Activity of the cardiac hERG channel was investigated using the patch clamp technique in its whole cell mode. This means that the current needed for clamping the whole cell expressing the K^+-channel protein to a specific potential was measured. The pipettes used for patch clamping were made of borosilicate glass. Measurements were performed at room temperature (20-25° C.). In each experiment (i.e. each cell) only one concentration of the compound was investigated—no cumulative dosages were performed. Each cell acted as its own control. The effect of the compounds on hERG mediated currents was investigated at one concentration (10 μM) with two replicates each (c=1, n=2).
Between voltage pulses the cell was clamped to a holding potential of −80 mV (inside).
(b) and (c) were used to characterize the properties of the hERG channel and to check the quality of the individual patch clamp experiment (voltage control). Each test protocol consisted of 6 segments.

[2] = read-out: Kv4.3 charge in %: remaining current measured after application of the compound and relative to the blank
[3] = read-out: Kv4.3 peak in %: remaining peak height measured after application of the compound and relative to the blank

Structure (SMILES)	remaining activity at 1 µM [1, 2] [%]	remaining activity at 1 µM [1, 3] [%]	hERG (%) (hERG potassium channel; 10 μM)	melting point [°C]	hERG (%) (hERG potassium channel; at 1 μM) [% at 1 μM]	IC50 ([1]; Table 12, read-out: Kv4.3 charge IC50) [µM]	IC50 (hERG potassium channel) [µM]	Ratio hERG/Kv4.3 (hERG potassium channel; selectivity Kv4.3 vs hERG, patch clamp)
O=C(c1cc2cc(Cl)ccc2o1)N1CCCCC1Cc1ccccc1 (centres unmarked) [Compound 28, (2-benzyl-piperidin-1-yl)-(5-chloro-benzofuran-2-yl)-methanone]	38	86	6	–	–	–	–	–
O=C(c1cc2cc(Cl)ccc2o1)N1Cc2ccccc2C1 [Compound 26, (5-chloro-benzofuran-2-yl)-(1,3-dihydro-isoindol-2-yl)-methanone]	81	99	–	187.1 to 188.5	–	–	–	–
COc1ccc(CNC(=O)c2cc3ccccc3s2)c(OC)c1 [Compound 32, benzo[b]thiophene-2-carboxylic acid 2,4-dimethoxy-benzylamide]	75	100	–	134.4 to 135.3	–	–	–	–
COc1ccc(CC(=O)Nc2cc3ccccc3o2)c(OC)c1 [Compound 22, N-benzofuran-2-yl-2-(2,4-dimethoxy-phenyl)-acetamide]	90	100	–	126.4 to 128.2	–	–	–	–
O=C(Nc1ccc(Cn2cccn2)cc1)c1cc2cc(Cl)ccc2o1 [Compound 105, 5-chloro-benzofuran-2-carboxylic acid (4-pyrazol-1-ylmethyl-phenyl)-amide]	90	99	–	197.4 to 198.8	–	–	–	–
O=C(c1cc2cc(Cl)ccc2o1)N1CCc2ccccc2C1 [Compound 27, (5-chloro-benzofuran-2-yl)-(3,4-dihydro-1H-isoquinolin-2-yl)-methanone]	59	86	–	127.7 to 129.1	–	–	–	–
O=C(NC1Cc2ccccc2C1)c1cc2cc(Cl)ccc2o1 [Compound 25, 5-chloro-benzofuran-2-carboxylic acid indan-2-ylamide]	82	100	–	190.2 to 190.5	–	–	–	–
COc1ccc(CNC(=O)c2cc3cc(Cl)ccc3n2C)c(OC)c1 [Compound 19, 5-chloro-1-methyl-1H-indole-2-carboxylic acid 2,4-dimethoxy-benzylamide]	44	87	35	150.8 to 152.7	–	–	–	–
O=C(NCc1ccc2c(c1)OCO2)c1cc2cc(Cl)ccc2o1 [Compound 92]	64	91	–	144 to 145.9	88	–	–	–
CC(C)(C)c1ccc(CNC(=O)c2cc3cc(Cl)ccc3o2)cc1 [Compound 71, 5-chloro-benzofuran-2-carboxylic acid 4-tert-butyl-benzylamide]	71	95	–	129.5 to 131.1	–	–	–	–
COc1ccc(CNC(=O)c2cc3c(C(C)=O)ccc(OC)c3o2)c(OC)c1 [Compound 13, 4-acetyl-7-methoxy-benzofuran-2-carboxylic acid 2,4-dimethoxy-benzylamide]	86	99	–	148.2 to 150.3	–	–	–	–
COc1ccc(CNC(=O)c2cnc3ccccc3c2)c(OC)c1 [Compound 42, quinolin-3-carboxylic acid 2,4-dimethoxy-benzylamide]	89	98	–	136.3	–	–	–	–
CN(CCCN1c2ccccc2CCc2ccccc21)C(=O)c1cc2cc(Cl)ccc2o1 [Compound 4, 5-chloro-benzofuran-2-carboxylic acid [3-(10,11-dihydro-dibenzo[b,f]azepin-5-yl)-propyl]-methyl-amide]	–	–	–	–	–	3.81	20	5.2
O=C(NCc1ccc(-c2cccs2)cc1)c1cc2cc(Cl)ccc2o1 [Compound 34, 5-chloro-benzofuran-2-carboxylic acid 4-thiophen-2-yl-benzylamide]	90	98	–	173.5 to 175	–	–	–	–
CN(C)c1ccc(CNC(=O)c2cc3cc(Cl)ccc3o2)cc1 [Compound 64, 5-chloro-benzofuran-2-carboxylic acid 4-dimethylamino-benzylamide]	76	85	–	178.6 to 179.7	–	–	–	–
COc1ccc(NC(=O)c2cc3cc(Cl)ccc3o2)c(OC)c1 [Compound 24, 5-chloro-benzofuran-2-carboxylic acid (2,4-dimethoxy-phenyl)-amide]	85	102	–	161.6 to 163.3	–	–	–	–
O=C(c1cc2cc(Cl)ccc2o1)N1CCC(c2ccccc2)CC1 [Compound 38, (5-chloro-benzofuran-2-yl)-(4-phenyl-piperidin-1-yl)-methanone]	89	99	–	101 to 101.6	–	–	–	–
CC(=O)Oc1ccc(CNC(=O)c2cc3cc(Cl)ccc3o2)cc1 [Compound 33, acetic acid 4-{[(5-chloro-benzofuran-2-carbonyl)-amino]-methyl}-phenyl ester]	89	100	–	162.5 to 164.5	–	–	–	–
CN(C)CC(NC(=O)c1cc2cc(Cl)ccc2o1)c1ccccc1 (centres unmarked) [Compound 49, 5-chloro-benzofuran-2-carboxylic acid (2-dimethylamino-1-phenyl-ethyl)-amide]	85	98	–	60.2 to 60.4	–	–	–	–
N#CCCN(Cc1ccccc1)C(=O)c1cc2cc(Cl)ccc2o1 [Compound 109, 5-chloro-benzofuran-2-carboxylic acid benzyl-(2-cyano-ethyl)-amide]	74	97	34	–	–	–	–	–
